This assay has as its system Arabidopsis thaliana. Briefly: Plate-based in vivo herbicidal screen, Arabidopsis thaliana. The conditions noted are these: 192 h, seeds in 96-well plate, 27° C., 8 days, continuous fluorescent lighting, scored by visual inspection. How it is done:
Plate-based in vivo screens were used to identify compounds with herbicidal activity. Three species of plants were used in screening: Arabidopsis thaliana, Agrostis sp. and Nicotinia tabacum (common tobacco). Test compounds in 1 μL of dimethylsulfoxide (DMSO) were delivered to individual wells of a 96-well microtiter plate. Growth media containing 10-15 seeds per 100 uL were then added. The growth media consisted of Murashige and Skoog Basal salt mixture, and 0.15% low melt agarose, all at a pH 6.2. The seeds remained neutrally buoyant and were easily pipettable at this concentration of low melt agarose. Each plate contained a column of untreated control wells in order to determine the false positive rate. The plates were covered and sealed and incubated at 27° C. for 8 days under continuous fluorescent lighting (155 umol/m^2/s). The plates were scored for herbicidal activity by visual inspection. Observed symptomology included growth inhibition, bleaching, leaf curling, and root growth inhibition. Six commercial herbicide standards were run concurrently with the experimental compounds as internal controls for assay sensitivity and plant response. The standards are described in Table 1 with their biochemical mode of action. The herbicidal activity of compositions in the present invention, presented as EC90 concentrations in the Arabidopsis thaliana screen, is tabulated in Table 2.
In the case of `O=C(NNC(=S)Nc1ccccc1Cl)c1cccc(NC(=O)c2cccc(Cl)c2)c1` [Compound 2, 1-[3-(3-Chlorobenzamido)-benzoyl]-4-(2-chlorophenyl)-thiosemicarbazide], the EC90 (as a rule, the concentration needed for an effect of 90%) was determined as 100 nM. As for `O=C(Nc1cccc(C(=O)NNC(=S)Nc2ccccc2Cl)c1Cl)c1cccc(Cl)c1` [Compound 3, 1-[2-Chloro-3-(3-chloro-benzamido)-benzoyl]-4-(2-chlorophenyl)-thiosemicarbazide], the figure is 3300 nM.

`Cc1c(NC(=O)c2cccc(Cl)c2)cccc1C(=O)NNC(=S)Nc1ccccc1Cl` [Compound 4, 1-[3-(3-Chlorobenzamido)-2-methylbenzoyl]-4-(2-chloro-phenyl)-thiosemicarbazide] gave an EC90 of 300 nM. Molecule `O=C(NNC(=S)Nc1ccccc1)c1cccc(NC(=O)c2cccc(Cl)c2)c1` [Compound 6, 1-[3-(3-Chlorobenzamido)-benzoyl]-4-phenyl-thiosemicarbazide] registered an EC90 of 150 nM. As for `O=C(NNC(=S)Nc1ccccc1C(F)(F)F)c1cccc(NC(=O)c2cccc(Cl)c2)c1` [Compound 7, 1-[3-(3-Chlorobenzamido)-benzoyl]-4-(2-trifluoromethylphenyl)-thiosemicarbazide], the figure is 1200 nM; as for `O=C(NNC(=S)Nc1ccccc1F)c1cccc(NC(=O)c2cccc(Cl)c2)c1` [Compound 9, 1-[3-(3-Chlorobenzamido)-benzoyl]-4-(2-fluorophenyl)-thiosemicarbazide], 50 nM; as for `O=C(NNC(=S)Nc1ccccc1Cl)c1ccc(Cl)c(NC(=O)c2cccc(C(F)(F)F)c2)c1` [Compound 11, 4-(2-Chlorophenyl)-1-[4-chloro-3-(3-trifluoromethylbenzamido)-benzoyl]-thiosemicarbazide], 3300 nM. As for `O=C(NNC(=S)Nc1ccccc1Cl)c1cccc(NC(=O)c2cccc(C(F)(F)F)c2)c1` [Compound 12, 4-(2-Chlorophenyl)-1[3-(3-trifluoromethylbenzamido)-benzoyl]-thiosemicarbazide], the figure is 300 nM; as for `O=C(Nc1cccc(C(=O)NNC(=S)Nc2ccccc2Cl)c1Cl)c1cccc(C(F)(F)F)c1` [Compound 14, 4-(2-Chlorophenyl)-1-[2-chloro-3-(3-trifluoromethylbenzamido)-benzoyl]-thiosemicarbazide], 300 nM. As for `O=C(NNC(=S)Nc1ccccc1Cl)c1cccc(NC(=O)c2cc(F)ccc2F)c1` [Compound 22, 4-(2-Chlorophenyl)-1-[3-(2,5-difluorobenzamido)-benzoyl]-thiosemicarbazide], the figure is 50 nM; as for `O=C(NNC(=S)Nc1ccccc1Cl)c1cccc(NC(=O)c2cccc(F)c2)c1` [Compound 23, 4-(2-Chlorophenyl)-1-[3-(3-fluorobenzamido)-benzoyl]-thiosemicarbazide], 50 nM.

The values above are taken from US7312181B2, “Acylated thiosemicarbazides as herbicides” (Cropsolution, Inc., priority 2005, dated 2007).
